Experimental data from PubChem BioAssay (NCI).
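Following 48 hours of exposure in 96-well plates, responses at five concentrations were used to interpolate endpoints linearly. The concentration for 50% growth inhibition is given as GI50. The concentration for full growth arrest is given as TGI.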

What was measured:
Experiment in all cases: growth of human tumour cells (NCI), 48 h
[1] = tested on: KM12 colon
[2] = tested on: BT-549 breast
[3] = tested on: CCRF-CEM leukemia
[4] = tested on: HCT-15 colon
[5] = tested on: EKVX NSCLC
[6] = tested on: OVCAR-5 ovarian
[7] = tested on: 786-0 renal
[8] = tested on: SK-MEL-5 melanoma
[9] = tested on: HOP-92 NSCLC
[10] = tested on: SK-MEL-28 melanoma
[11] = tested on: SW-620 colon
[12] = tested on: OVCAR-3 ovarian
[13] = tested on: SK-OV-3 ovarian
[14] = tested on: UO-31 renal
[15] = tested on: NCI-H23 lung
[16] = tested on: HCT-116 colon
[17] = tested on: CAKI-1 renal
[18] = tested on: OVCAR-8 ovarian
[19] = tested on: OVCAR-4 ovarian
[20] = tested on: ACHN renal
[21] = tested on: M14 melanoma
[22] = tested on: SF-268 CNS
[23] = tested on: HOP-62 NSCLC
[24] = tested on: SNB-19 CNS
[25] = tested on: K-562 leukemia
[26] = tested on: NCI-H522 lung
[27] = tested on: SN12C renal
[28] = tested on: SR leukemia
[29] = tested on: HCC-2998 colon
[30] = tested on: SF-539 CNS
[31] = tested on: MOLT-4 leukemia
[32] = tested on: T-47D breast
[33] = tested on: IGROV1 ovarian
[34] = tested on: A549 NSCLC
[35] = tested on: RPMI-8226 leukemia
[36] = tested on: SNB-75 CNS
[37] = tested on: TK-10 renal
[38] = tested on: RXF 393 renal
[39] = tested on: SK-MEL-2 melanoma
[40] = tested on: A498 renal
[41] = tested on: LOX IMVI melanoma
[42] = tested on: HT29 colon
[43] = tested on: COLO 205 colon
[44] = tested on: SF-295 CNS
[45] = tested on: MCF7 breast
[46] = tested on: UACC-257 melanoma
[47] = tested on: DU-145 prostate
[48] = tested on: NCI/ADR-RES ovarian
[49] = tested on: NCI-H226 lung
[50] = tested on: NCI-H460 lung
[51] = tested on: HL-60(TB) leukemia
[52] = tested on: PC-3 prostate
[53] = tested on: HS 578T breast
[54] = tested on: U251 CNS
[55] = tested on: MDA-MB-435

Work on CN(C)CCOc1ccc2[nH]c(C(=O)N3CC(CCl)c4ccc(N)cc43)cc2c1 (stereo not drawn) yielded a TGI [1] of 294 nM, a TGI [2] of 612 nM and a TGI [3] of 975 nM. The TGI [4] was 20700 nM, the TGI [5] was 5920 nM and the TGI [6] was 18200 nM. For the same molecule, the TGI [7] was 5480 nM, the TGI [8] was 261 nM and the TGI [9] was 4180 nM. The TGI [10] was 3210 nM, the TGI [11] was over 100000 nM and the TGI [12] was 653 nM. The TGI [13] was over 100000 nM, the TGI [14] was over 40700 nM and the TGI [15] was 341 nM. The TGI [16] was 12900 nM, the TGI [17] was over 100000 nM and the TGI [18] was over 35800 nM. The TGI [19] was 460 nM, the TGI [20] was 1070 nM and the TGI [21] was 1390 nM. It also gave a TGI [22] of 1010 nM, a TGI [23] of 690 nM and a TGI [24] of 21800 nM. The TGI [25] was over 100000 nM, the TGI [26] was 68.3 nM and the TGI [27] was over 22300 nM. It also gave a TGI [28] of over 100000 nM, a TGI [29] of 823 nM and a TGI [30] of over 100000 nM. The TGI [31] was 56.5 nM, the TGI [32] was over 100000 nM and the TGI [33] was over 67600 nM. For the same molecule, the TGI [34] was over 40300 nM and the TGI [35] was 1140 nM.
CC(=O)OCC1OC(n2c(=S)n(-c3ccccc3)c(=O)c3ccccc32)C(OC(C)=O)C(OC(C)=O)C1OC(C)=O (stereo not drawn) was tested, and the TGI [9] was over 100000 nM, the TGI [17] was over 100000 nM and the TGI [19] was over 100000 nM.
COC1=CC(c2ccc[nH]2)=N/C1=C\c1[nH]c(C)c(C)c1CCC(=O)OCc1ccccc1 gave a GI50 [1] of 242 nM, a TGI [1] of 1800 nM and a GI50 [36] of 226 nM. For the same molecule, the TGI [36] was 728 nM, the GI50 [2] was 378 nM and the TGI [2] was 2900 nM. It also gave a GI50 [37] of 390 nM, a TGI [37] of 3090 nM and a GI50 [3] of 142 nM. It also gave a TGI [3] of 2590 nM, a GI50 [4] of 305 nM and a TGI [4] of 1180 nM. It also gave a GI50 [38] of 496 nM, a TGI [38] of 1830 nM and a GI50 [39] of 572 nM. The TGI [39] was 2100 nM, the GI50 [5] was 281 nM and the TGI [5] was 1900 nM. The GI50 [6] was 709 nM, the TGI [6] was 7070 nM and the GI50 [9] was 217 nM. It also gave a TGI [9] of 732 nM, a GI50 [40] of 563 nM and a TGI [40] of 1990 nM. The GI50 [11] was 322 nM, the TGI [11] was 1620 nM and the GI50 [12] was 304 nM. The TGI [12] was 1350 nM, the GI50 [41] was 217 nM and the TGI [41] was 705 nM. The GI50 [42] was 191 nM, the TGI [42] was 1360 nM and the GI50 [13] was 1790 nM. For the same molecule, the TGI [13] was 5160 nM, the GI50 [14] was 209 nM and the TGI [14] was 459 nM. The GI50 [43] was 257 nM, the TGI [43] was 1150 nM and the GI50 [15] was 382 nM. For the same molecule, the TGI [15] was 2550 nM, the GI50 [16] was 65 nM and the TGI [16] was 1110 nM. For the same molecule, the GI50 [44] was 224 nM, the TGI [44] was 894 nM and the GI50 [45] was 293 nM. The TGI [45] was 2190 nM, the GI50 [46] was 1270 nM and the TGI [46] was 2970 nM. The GI50 [47] was 446 nM, the TGI [47] was 6820 nM and the GI50 [17] was 300 nM. For the same molecule, the TGI [17] was 2080 nM, the GI50 [18] was 366 nM and the TGI [18] was 1440 nM. It also gave a GI50 [19] of 246 nM, a TGI [19] of 4430 nM and a GI50 [48] of 382 nM. It also gave a TGI [48] of 2010 nM, a GI50 [21] of 285 nM and a TGI [21] of 1000 nM. For the same molecule, the GI50 [22] was 369 nM, the TGI [22] was 2920 nM and the GI50 [23] was 355 nM. The TGI [23] was 1840 nM, the GI50 [49] was 377 nM and the TGI [49] was 2460 nM. For the same molecule, the GI50 [24] was 676 nM, the TGI [24] was 14000 nM and the GI50 [26] was 256 nM. For the same molecule, the TGI [26] was 1620 nM, the GI50 [50] was 623 nM and the TGI [50] was 10800 nM. It also gave a GI50 [28] of 175 nM, a TGI [28] of 618 nM and a GI50 [51] of 799 nM. The TGI [51] was 3460 nM, the GI50 [31] was 240 nM and the TGI [31] was 1440 nM. It also gave a GI50 [52] of 277 nM, a TGI [52] of 5870 nM and a GI50 [53] of 289 nM. For the same molecule, the TGI [53] was 1680 nM, the GI50 [54] was 322 nM and the TGI [54] was 1520 nM. For the same molecule, the GI50 [32] was 227 nM, the TGI [32] was 876 nM and the GI50 [34] was 602 nM. For the same molecule, the TGI [34] was 11100 nM, the GI50 [55] was 440 nM and the TGI [55] was 1640 nM.
